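Where inhibition never reached the appropriate level, the endpoint shown equals the highest concentration tested. Otherwise, values were interpolated linearly from a five-concentration, 48-hour dose response in 96-well plates. GI50 = concentration required for 50% inhibition of growth.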 The source made the active and inactive calls. No stated cut-off is given here; in the data, active = GI50 up to about 1.1 µM and inactive = higher.
How the values were obtained:
Test in all cases: growth of human tumour cells (NCI), 48 h
SN12C = test system: SN12C
SNB-19 = test system: SNB-19
SR = test system: SR
HT-29 = test system: HT-29
LOX IMVI = test system: LOX IMVI
UACC-257 = test system: UACC-257
RPMI-8226 = test system: RPMI-8226
M14 = test system: M14
NCI-H460 = test system: NCI-H460
SK-MEL-2 = test system: SK-MEL-2
HCC 2998 = test system: HCC 2998
UO-31 = test system: UO-31
EKVX = test system: EKVX
TK-10 = test system: TK-10
SF-539 = test system: SF-539
NCI-H23 = test system: NCI-H23
KM-20L2 = test system: KM-20L2
A549 = test system: A549
DMS-273 = test system: DMS-273
SNB-75 = test system: SNB-75
COLO 205 = test system: COLO 205
HL-60 = test system: HL-60
NCI-H522 = test system: NCI-H522
NCI-H226 = test system: NCI-H226
MOLT-4 = test system: MOLT-4
LXFL 529 = test system: LXFL 529
SW-620 = test system: SW-620
Malme-3M = test system: Malme-3M
HOP-18 = test system: HOP-18
IGROV-1 = test system: IGROV-1
KM12 = test system: KM12
CCRF-CEM = test system: CCRF-CEM
HCT-15 = test system: HCT-15
OVCAR-3 = test system: OVCAR-3
HCT-116 = test system: HCT-116
OVCAR-8 = test system: OVCAR-8
ACHN = test system: ACHN
SK-MEL-5 = test system: SK-MEL-5
K562 = test system: K562
OVCAR-4 = test system: OVCAR-4
A498 = test system: A498
XF498 = test system: XF498
UACC-62 = test system: UACC-62
HOP-62 = test system: HOP-62
786-0 = test system: 786-0
M19-MEL = test system: M19-MEL
DMS-114 = test system: DMS-114
SF-295 = test system: SF-295
DLD-1 = test system: DLD-1
SF-268 = test system: SF-268
CAKI-1 = test system: CAKI-1
SNB-78 = test system: SNB-78
RXF 393 = test system: RXF 393
OVCAR-5 = test system: OVCAR-5
HOP-92 = test system: HOP-92
SK-OV-3 = test system: SK-OV-3
SK-MEL-28 = test system: SK-MEL-28
U-251 = test system: U-251
MDA-MB-231 = test system: MDA-MB-231
T47D = test system: T47D
MDA-MB-435 = test system: MDA-MB-435
DU-145 = test system: DU-145
PC-3 = test system: PC-3
BT-549 = test system: BT-549
NCI/ADR-RES = test system: NCI/ADR-RES
MDA-N = test system: MDA-N
MCF7 = test system: MCF7
Hs-578T = test system: Hs-578T

C/C=C1\C=C(OC)CN(CCc2c[nH]c3ccccc23)C1
GI50 (SN12C): 59.6 µM (inactive) | GI50 (SNB-19): > 100 µM (inactive) | GI50 (SR): 61.8 µM (inactive) | GI50 (HT-29): 25.4 µM (inactive) | GI50 (LOX IMVI): 23.2 µM (inactive) | GI50 (UACC-257): 48.4 µM (inactive) | GI50 (RPMI-8226): 73.8 µM (inactive) | GI50 (M14): 27.7 µM (inactive) | GI50 (NCI-H460): 26 µM (inactive) | GI50 (SK-MEL-2): 43.3 µM (inactive) | GI50 (HCC 2998): 18 µM (inactive) | GI50 (UO-31): 75 µM (inactive) | GI50 (EKVX): 60.7 µM (inactive) | GI50 (TK-10): > 100 µM (inactive) | GI50 (SF-539): > 100 µM (inactive) | GI50 (NCI-H23): > 100 µM (inactive) | GI50 (KM-20L2): 37.6 µM (inactive) | GI50 (A549): 80.7 µM (inactive) | GI50 (DMS-273): 49.7 µM (inactive) | GI50 (SNB-75): 38.9 µM (inactive) | GI50 (COLO 205): 34.3 µM (inactive) | GI50 (HL-60): 61 µM (inactive) | GI50 (NCI-H522): 46 µM (inactive) | GI50 (NCI-H226): 27.2 µM (inactive) | GI50 (MOLT-4): > 100 µM (inactive) | GI50 (LXFL 529): 9.4 µM (inactive) | GI50 (SW-620): 70.3 µM (inactive) | GI50 (Malme-3M): 22.5 µM (inactive) | GI50 (HOP-18): > 10 µM (inactive) | GI50 (IGROV-1): > 100 µM (inactive) | GI50 (KM12): 52.2 µM (inactive) | GI50 (CCRF-CEM): > 100 µM (inactive) | GI50 (HCT-15): 56.6 µM | GI50 (OVCAR-3): 53.5 µM (inactive) | GI50 (HCT-116): 36.4 µM (inactive) | GI50 (OVCAR-8): > 100 µM (inactive) | GI50 (ACHN): > 100 µM (inactive) | GI50 (SK-MEL-5): 20.2 µM (inactive) | GI50 (K562): 72.3 µM (inactive) | GI50 (OVCAR-4): 39.5 µM (inactive) | GI50 (A498): 44 µM (inactive) | GI50 (XF498): 32.9 µM (inactive) | GI50 (UACC-62): 41.3 µM (inactive) | GI50 (HOP-62): 73.5 µM (inactive) | GI50 (786-0): 59 µM (inactive) | GI50 (M19-MEL): 79.8 µM (inactive) | GI50 (DMS-114): 43.4 µM (inactive) | GI50 (SF-295): 27.9 µM (inactive) | GI50 (DLD-1): > 100 µM (inactive) | GI50 (SF-268): 19 µM (inactive)

CCc1cccc(C)c1NC(=O)CCc1nnc(S)[nH]1
GI50 (CAKI-1): > 100 µM (inactive) | GI50 (SN12C): > 100 µM (inactive) | GI50 (SNB-78): > 100 µM (inactive) | GI50 (SNB-19): > 100 µM (inactive) | GI50 (RXF 393): > 100 µM (inactive) | GI50 (OVCAR-5): > 100 µM (inactive) | GI50 (SR): > 100 µM (inactive) | GI50 (HT-29): > 100 µM (inactive) | GI50 (LOX IMVI): > 100 µM (inactive) | GI50 (UACC-257): > 100 µM (inactive) | GI50 (RPMI-8226): > 100 µM (inactive) | GI50 (HOP-92): > 100 µM (inactive) | GI50 (M14): > 100 µM (inactive) | GI50 (NCI-H460): > 100 µM (inactive) | GI50 (SK-MEL-2): > 100 µM (inactive) | GI50 (HCC 2998): > 100 µM (inactive) | GI50 (SK-OV-3): > 100 µM (inactive) | GI50 (UO-31): > 100 µM (inactive) | GI50 (EKVX): > 100 µM (inactive) | GI50 (TK-10): > 100 µM (inactive) | GI50 (SF-539): > 100 µM (inactive) | GI50 (NCI-H23): > 100 µM (inactive) | GI50 (KM-20L2): > 100 µM (inactive) | GI50 (A549): > 100 µM (inactive) | GI50 (HL-60): > 100 µM (inactive) | GI50 (NCI-H522): > 100 µM (inactive) | GI50 (NCI-H226): > 100 µM (inactive) | GI50 (MOLT-4): > 100 µM (inactive) | GI50 (SK-MEL-28): > 100 µM (inactive) | GI50 (LXFL 529): > 100 µM (inactive) | GI50 (SW-620): > 100 µM (inactive) | GI50 (Malme-3M): > 100 µM (inactive) | GI50 (HOP-18): > 100 µM (inactive) | GI50 (U-251): > 100 µM (inactive) | GI50 (IGROV-1): > 100 µM (inactive) | GI50 (KM12): > 100 µM (inactive) | GI50 (CCRF-CEM): > 100 µM (inactive) | GI50 (HCT-15): > 100 µM | GI50 (OVCAR-3): > 100 µM (inactive) | GI50 (HCT-116): > 100 µM (inactive) | GI50 (OVCAR-8): > 100 µM (inactive) | GI50 (ACHN): > 100 µM (inactive) | GI50 (SK-MEL-5): > 100 µM (inactive) | GI50 (K562): > 100 µM (inactive) | GI50 (OVCAR-4): > 100 µM (inactive) | GI50 (XF498): > 100 µM (inactive) | GI50 (UACC-62): > 100 µM (inactive) | GI50 (HOP-62): > 100 µM (inactive) | GI50 (786-0): > 100 µM (inactive) | GI50 (M19-MEL): > 100 µM (inactive) | GI50 (DMS-114): > 100 µM (inactive) | GI50 (SF-295): > 100 µM (inactive) | GI50 (DLD-1): > 100 µM (inactive) | GI50 (SF-268): > 100 µM (inactive)

O=c1[nH]c(=O)n(C2CC(O)C(CS)O2)cc1F (stereo unspecified)
GI50 (CAKI-1): > 81.7 µM (inactive) | GI50 (SN12C): 80.5 µM (inactive) | GI50 (SNB-78): > 100 µM (inactive) | GI50 (MDA-MB-231): > 80 µM (inactive) | GI50 (SNB-19): 98.4 µM (inactive) | GI50 (RXF 393): > 100 µM (inactive) | GI50 (OVCAR-5): > 61.9 µM (inactive) | GI50 (SR): 56.6 µM (inactive) | GI50 (HT-29): 66.1 µM (inactive) | GI50 (LOX IMVI): 61.9 µM (inactive) | GI50 (UACC-257): > 100 µM (inactive) | GI50 (RPMI-8226): 67 µM (inactive) | GI50 (HOP-92): 9.79 µM (inactive) | GI50 (M14): > 100 µM (inactive) | GI50 (NCI-H460): 6.87 µM (inactive) | GI50 (T47D): > 76.2 µM (inactive) | GI50 (SK-MEL-2): > 100 µM (inactive) | GI50 (HCC 2998): 4.61 µM (inactive) | GI50 (SK-OV-3): > 100 µM (inactive) | GI50 (MDA-MB-435): > 92.7 µM (inactive) | GI50 (DU-145): 61.2 µM (inactive) | GI50 (UO-31): 60.4 µM (inactive) | GI50 (EKVX): > 100 µM (inactive) | GI50 (PC-3): 81.3 µM (inactive) | GI50 (TK-10): 83.2 µM (inactive) | GI50 (SF-539): 11 µM (inactive) | GI50 (NCI-H23): > 94.4 µM (inactive) | GI50 (KM-20L2): 78.9 µM (inactive) | GI50 (A549): 23.6 µM (inactive) | GI50 (BT-549): > 100 µM (inactive) | GI50 (NCI/ADR-RES): 5.4 µM (inactive) | GI50 (SNB-75): 55.6 µM (inactive) | GI50 (COLO 205): 52.5 µM (inactive) | GI50 (HL-60): > 63.8 µM (inactive) | GI50 (NCI-H522): > 87.1 µM (inactive) | GI50 (NCI-H226): > 100 µM (inactive) | GI50 (MOLT-4): 62.5 µM (inactive) | GI50 (SK-MEL-28): 74.1 µM (inactive) | GI50 (LXFL 529): > 10 µM (inactive) | GI50 (SW-620): > 86.1 µM (inactive) | GI50 (Malme-3M): 64.7 µM (inactive) | GI50 (HOP-18): > 100 µM (inactive) | GI50 (MDA-N): 86.9 µM (inactive) | GI50 (U-251): 72.8 µM (inactive) | GI50 (IGROV-1): > 100 µM (inactive) | GI50 (KM12): 99.1 µM (inactive) | GI50 (CCRF-CEM): 30.5 µM (inactive) | GI50 (HCT-15): 74.5 µM | GI50 (OVCAR-3): > 92.3 µM (inactive) | GI50 (HCT-116): 56.6 µM (inactive) | GI50 (OVCAR-8): 14.8 µM (inactive) | GI50 (ACHN): 21.4 µM (inactive) | GI50 (SK-MEL-5): 70.1 µM (inactive) | GI50 (K562): > 93.3 µM (inactive) | GI50 (MCF7): 8.38 µM (inactive) | GI50 (OVCAR-4): > 92.7 µM (inactive) | GI50 (A498): 26.6 µM (inactive) | GI50 (XF498): > 100 µM (inactive) | GI50 (UACC-62): 65.2 µM (inactive) | GI50 (HOP-62): 37.2 µM (inactive) | GI50 (786-0): 21.7 µM (inactive) | GI50 (M19-MEL): 77.6 µM (inactive) | GI50 (DMS-114): > 100 µM (inactive) | GI50 (Hs-578T): > 100 µM (inactive) | GI50 (SF-295): 47 µM (inactive) | GI50 (DLD-1): > 100 µM (inactive) | GI50 (SF-268): 20.8 µM (inactive)
